Experiments:
hROMK (human Kir1.1) = hROMK (human Kir1.1) (Homo sapiens (Human), UniProt P48048); assay: cell-based; settings: CHO T-Rex hROMK stable cell line; thallium flux; 10-point concentration response curve; read-out: Human ROMK Th Flux IC50
hERG channels = hERG channels (Homo sapiens (Human), UniProt Q12809); assay: hERG Manual Patch Clamp Assay; type: cell-based; settings: human, HEK 293 cells stably expressing hERG channels, pH 7.4, 1 uM, read-out: hERG EP % Inh @ 1 uM
Chain of hERG channels (Q12809 whole entry): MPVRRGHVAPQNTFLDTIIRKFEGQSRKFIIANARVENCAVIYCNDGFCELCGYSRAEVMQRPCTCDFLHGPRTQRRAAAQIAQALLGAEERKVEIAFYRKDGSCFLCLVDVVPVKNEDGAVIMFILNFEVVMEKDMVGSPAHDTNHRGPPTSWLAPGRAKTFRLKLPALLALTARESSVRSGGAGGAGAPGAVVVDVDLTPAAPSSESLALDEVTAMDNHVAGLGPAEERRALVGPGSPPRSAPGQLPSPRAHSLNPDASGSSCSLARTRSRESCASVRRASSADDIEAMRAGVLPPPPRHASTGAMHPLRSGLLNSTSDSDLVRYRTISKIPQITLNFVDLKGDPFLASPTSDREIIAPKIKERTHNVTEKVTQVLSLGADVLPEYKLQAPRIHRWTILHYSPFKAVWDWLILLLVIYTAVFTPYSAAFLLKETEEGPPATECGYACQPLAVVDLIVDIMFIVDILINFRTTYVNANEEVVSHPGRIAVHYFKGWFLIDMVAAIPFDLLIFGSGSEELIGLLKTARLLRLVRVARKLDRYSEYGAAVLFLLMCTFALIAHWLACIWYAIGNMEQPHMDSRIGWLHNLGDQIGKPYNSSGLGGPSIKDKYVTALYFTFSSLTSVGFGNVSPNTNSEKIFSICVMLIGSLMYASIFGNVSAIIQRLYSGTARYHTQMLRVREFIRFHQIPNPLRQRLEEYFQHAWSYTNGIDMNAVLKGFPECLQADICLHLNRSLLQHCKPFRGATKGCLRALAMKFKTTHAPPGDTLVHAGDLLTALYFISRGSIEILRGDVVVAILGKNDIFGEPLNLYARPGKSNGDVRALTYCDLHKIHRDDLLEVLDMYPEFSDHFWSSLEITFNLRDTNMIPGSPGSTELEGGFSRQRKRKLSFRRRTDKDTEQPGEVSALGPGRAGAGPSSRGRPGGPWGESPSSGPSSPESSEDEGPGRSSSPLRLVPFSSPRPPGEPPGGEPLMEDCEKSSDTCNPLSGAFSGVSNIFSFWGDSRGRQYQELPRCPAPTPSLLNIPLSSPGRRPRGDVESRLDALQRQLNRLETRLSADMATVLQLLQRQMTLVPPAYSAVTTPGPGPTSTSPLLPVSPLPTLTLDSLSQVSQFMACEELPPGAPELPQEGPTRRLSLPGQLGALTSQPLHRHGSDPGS
Protocol: hERG electrophysiology assay: The experimental compounds were assessed for hERG activity on HEK 293 cells stably expressing hERG channels using patch clamp technique. Coverslips plated with hERG expressing cells were placed in the experimental chamber and were perfused with a solution composed of (in mM): 140 NaCl, 4 KCl, 1.8 CaCl2, 1 MgCl2, 10 Glucose, 10 HEPES (pH 7.4, NaOH) at room temperature. Borosilicate patch pipettes had tip resistances of 2-4 Mohms when filled with an internal solution containing: 130 KCl, 1 MgCl2, 1 CaCl2, 10 EGTA, 10 HEPES, 5 ATP-K2 (pH 7.2, KOH). The cells were clamped at −80 mV in whole cell configuration using an Axopatch 200B (Axon instruments, Union City, Calif.) patch clamp amplifier controlled by pClamp (Axon instruments) software. Upon formation of a gigaseal, the following voltage protocol was repeatedly (0.05 Hz) applied to record tail currents: depolarization step from −80 mV to +20 mV for 2 seconds followed by a hyperpolarization step to −65 mV (3 seconds) to elicit tail currents. Compounds were applied after stabilization of tail current. First, tail currents were recorded in presence of extracellular solution alone (control) and subsequently, in extracellular solution containing increasing compound concentrations. Each compound concentration was applied for 2-5 minutes. The percentage inhibition at each concentration was calculated as reduction in peak tail current with respect to the peak tail current recorded in the presence of control solution. Data analysis was performed in a custom made template. The percent inhibitions at different concentrations were plotted to obtain a concentration response curve, which was subsequently fitted with a four parameter equation to calculate hERG IC50 value.

Chain of hROMK (human Kir1.1) (P48048 whole entry): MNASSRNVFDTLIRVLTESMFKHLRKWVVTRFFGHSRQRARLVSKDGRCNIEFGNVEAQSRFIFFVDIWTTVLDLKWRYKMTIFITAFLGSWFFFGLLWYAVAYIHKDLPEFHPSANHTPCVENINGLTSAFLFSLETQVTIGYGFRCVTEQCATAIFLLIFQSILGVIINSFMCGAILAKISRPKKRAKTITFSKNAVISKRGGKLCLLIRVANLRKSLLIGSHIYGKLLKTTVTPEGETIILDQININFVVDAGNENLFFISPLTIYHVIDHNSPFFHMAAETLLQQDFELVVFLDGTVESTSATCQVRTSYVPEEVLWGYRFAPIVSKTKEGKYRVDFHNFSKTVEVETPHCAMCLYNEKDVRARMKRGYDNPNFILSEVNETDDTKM

## Cc1c([C@@H]2CN(Cc3cn(-c4ccc(C(F)F)nc4)cn3)C[C@H](C)N2)ccc2c1COC2=O [Example 134-I, 5-((2R,6S)-4-((1-(6-(difluoromethyl)pyridin-3-yl)-1H-imidazol-4-yl)methyl)-6-methylpiperazin-2-yl)-4-methylisobenzofuran-1(3H)-one]
hROMK (human Kir1.1)
  IC50: 43 nM
hERG channels
  inhibition at 1 µM: 22%

## COc1cc(-n2cc(CN3C[C@@H](c4ccc5c(c4C)COC5=O)N[C@@H](C)C3)n(C)c2=O)ccn1 [Example 275-I, 1-(2-methoxypyridin-4-yl)-3-methyl-4-(((3S,5R)-3-methyl-5-(4-methyl-1-oxo-1,3-dihydroisobenzofuran-5-yl)piperazin-1-yl)methyl)-1,3-dihydro-2H-imidazol-2-one]
hROMK (human Kir1.1)
  IC50: 42 nM
hERG channels
  inhibition at 1 µM: 8.4%

## Cc1cc(-n2cc(CN3CCN[C@H](c4ccc5c(c4C)COC5=O)C3)c(C3CC3)n2)ncc1C#N [Example 237-I, (R)-6-(3-cyclopropyl-4-((3-(4-methyl-1-oxo-1,3-dihydroisobenzofuran-5-yl)piperazin-1-yl)methyl)-1H-pyrazol-1-yl)-4-methylnicotinonitrile]
hROMK (human Kir1.1)
  IC50: 69 nM
hERG channels
  inhibition at 1 µM: 37%

## Cc1ncn(-c2ncc(CN3CCN[C@H](c4ccc5c(c4C)COC5=O)C3)cn2)c1C(F)F [Example 150-I, (R)-5-(4-((2-(5-(difluoromethyl)-4-methyl-1H-imidazol-1-yl)pyrimidin-5-yl)methyl)piperazin-2-yl)-4-methylisobenzofuran-1(3H)-one]
hROMK (human Kir1.1)
  IC50: 100 nM
hERG channels
  inhibition at 1 µM: 14%

## Cc1cc(-n2cc(CN3CC(CO)NC(c4ccc5c(c4C)COC5=O)C3)nn2)ncc1C#N (single isomer, unassigned) [Example 88-III, 6-(4-((3-(hydroxymethyl)-5-(4-methyl-1-oxo-1,3-dihydroisobenzofur-an-5-yl)piperazin-1-yl)methyl)-1H-1,2,3-triazol-1-yl)-4-methylnicotinonitrile]
hROMK (human Kir1.1)
  IC50: 36 nM
hERG channels
  inhibition at 1 µM: 8.3%

## Cc1c([C@@H]2CN(Cc3cnn(-c4cc(C)c5oc(=O)n(C)c5c4)c3)CCN2)ccc2c1COC2=O [Example 57-I, (R)-3,7-dimethyl-5-(4-((3-(4-methyl-1-oxo-1,3-dihydroisobenzofuran-5-yl)piperazin-1-yl)methyl)-1H-pyrazol-1-yl)benzo[d]oxazol-2(3H)-one]
hROMK (human Kir1.1)
  IC50: 59 nM
hERG channels
  inhibition at 1 µM: 26%

## Cc1cc(-n2cc(CN3CCCC(c4ccc5c(c4C)COC5=O)C3)cn2)ncc1C#N (single isomer, unassigned) [Example 197-I, 4-methyl-6-(4-((3-(4-methyl-1-oxo-1,3-dihydroisobenzofuran-5-yl)piperidin-1-yl)methyl)-1H-pyraozl-1-yl)nicotinonitrile]
hROMK (human Kir1.1)
  IC50: 15 nM
hERG channels
  inhibition at 1 µM: 75%

## Cc1cc(-n2cc(CN3CC(c4ccc5c(c4C)COC5=O)NC(C(F)F)C3)cn2)ncc1C#N (single isomer, unassigned) [Example 205-I, 6-(4-((3-(difluoromethyl)-5-(4-methyl-1-oxo-1,3-dihydroisobenzofuran-5-yl)piperazin-1-yl)methyl)-1H-pyrazol-1-yl)-4-methylnicotinonitrile]
hROMK (human Kir1.1)
  IC50: 71 nM
hERG channels
  inhibition at 1 µM: 10%

## Cc1nc(-n2cnc(CN3C[C@@H](c4ccc5c(c4C)COC5=O)N[C@@H](C)C3)c2)nc(C)c1C#N [Example 95-I, 4,6-dimethyl-2-(4-(((3S,5R)-3-methyl-5-(4-methyl-1-oxo-1,3-dihydroisobenzofur-an-5-yl)piperazin-1-yl)methyl)-1H-imidazol-1-yl)pyrimidine-5-carbonitrile]
hROMK (human Kir1.1)
  IC50: 26 nM
hERG channels
  inhibition at 1 µM: 13%

## Cc1c([C@@H]2CN(Cc3ccc(-n4cc(C#N)nn4)nc3)CCN2)ccc2c1COC2=O [Example 225-I, (R)-1-(5-((3-(4-methyl-1-oxo-1,3-dihydroisobenzofuran-5-yl)piperazin-1-yl)methyl)pyridin-2-yl)-1H-1,2,3-triazole-4-carbonitrile]
hROMK (human Kir1.1)
  IC50: 19 nM
hERG channels
  inhibition at 1 µM: 39%

## CCOc1cc(-n2cc(CN3CCN[C@H](c4ccc5c(c4C)COC5=O)C3)cn2)ncc1C#N [Example 137-I, (R)-4-ethoxy-6-(4-((3-(4-methyl-1-oxo-1,3-dihydroisobenzofuran-5-yl)piperazin-1-yl)methyl)-1H-pyrazol-1-yl)nicotinonitrile]
hROMK (human Kir1.1)
  IC50: 26 nM
hERG channels
  inhibition at 1 µM: 23%

## Cc1c([C@@H]2CN(Cc3cnn(-c4ccc5oc(=O)n(C)c5c4)c3)CCO2)ccc2c1COC2=O [Example 25-I, (R)-3-methyl-5-(4-((2-(4-methyl-1-oxo-1,3-dihydroisobenzofuran-5-yl)morpholino)methyl)-1H-pyrazol-1-yl) benzo[d]oxazol-2(3H)-one]
hROMK (human Kir1.1)
  IC50: 51 nM
hERG channels
  inhibition at 1 µM: 8.7%

## Cc1c([C@@H]2CN(Cc3ccc(-n4ccc(C#N)n4)nc3)CCN2)ccc2c1COC2=O [Example 136-I, (R)-1-(5-((3-(4-methyl-1-oxo-1,3-dihydroisobenzofuran-5-yl)piperazin-1-yl)methyl)pyridin-2-yl)-1H-pyrazole-3-carbonitrile]
hROMK (human Kir1.1)
  IC50: 28 nM
hERG channels
  inhibition at 1 µM: 29%

## Cc1cc(-n2cc(CN3CCO[C@H](c4ccc5c(c4C)COC5=O)C3)c(C)n2)ncc1C#N [Example 52-I, (R)-4-methyl-6-(3-methyl-4-((2-(4-methyl-1-oxo-1,3-dihydroisobenzo-furan-5-yl)morpholino)methyl)-1H-pyrazol-1-yl)nicotinonitrile]
hROMK (human Kir1.1)
  IC50: 2.8 nM
hERG channels
  inhibition at 1 µM: 72%

## Cc1cc(-n2cc(CN3CC(c4ccc5c(c4C)COC5=O)C(O)C(C)(C)C3)cn2)ncc1C#N (stereo not shown) [Example 116-I, 6-(4-((4-hydroxy-3,3-dimethyl-5-(4-methyl-1-oxo-1,3-dihydroisobenzofuran-5-yl)piperidin-1-yl)methyl)-1H-pyrazol-1-yl)-4-methylnicotinonitrile]
hROMK (human Kir1.1)
  IC50: 39 nM
hERG channels
  inhibition at 1 µM: 6.4%

## Cc1cc(-n2cc(CN3CCO[C@H](c4ccc5c(c4C)COC5=O)C3)cn2)ccc1C#N [Example 46-I, (R)-2-methyl-4-(4-((2-(4-methyl-1-oxo-1,3-dihydroisobenzofuran-5-yl)morpholino)methyl)-1H-pyrazol-1-yl) benzonitrile]
hROMK (human Kir1.1)
  IC50: 26 nM
hERG channels
  inhibition at 1 µM: 43%

## Cc1c([C@@H]2CN(Cc3cnn(-c4ccn(C(F)F)c(=O)c4)c3)C[C@H](C)N2)ccc2c1COC2=O [Example 129-I, 1-(difluoromethyl)-4-(4-(((3S,5R)-3-methyl-5-(4-methyl-1-oxo-1,3-dihydroisobenzofuran-5-yl)piperazin-1-yl)methyl)-1H-pyrazol-1-yl)pyridin-2(1H)-one]
hROMK (human Kir1.1)
  IC50: 26 nM
hERG channels
  inhibition at 1 µM: 32%

## Cc1cc(-n2cc(CN3CC(F)CC(c4ccc5c(c4C)COC5=O)C3)nn2)ncc1C#N (single isomer, unassigned) [Example 203-I, 6-(4-((3-fluoro-5-(4-methyl-1-oxo-1,3-dihydroisobenzofuran-5-yl)piperidin-1-yl)methyl)-1H-1,2,3-triaozl-1-yl)-4-methylnicotinonitrile]
hROMK (human Kir1.1)
  IC50: 43 nM
hERG channels
  inhibition at 1 µM: 16%

## COc1ncnc(-n2cc(CN3C[C@@H](c4ccc5c(c4C)COC5=O)N[C@@H](C)C3)cn2)n1 [Example 194-I, 5-((2R,6S)-4-((1-(4-methoxy-1,3,5-triazin-2-yl)-1H-pyrazol-4-yl)methyl)-6-methylpiperazin-2-yl)-4-methylisobenzofuran-1(3H)-one]
hROMK (human Kir1.1)
  IC50: 60 nM
hERG channels
  inhibition at 1 µM: 11%

## COc1cc(-n2cc(CN3C[C@@H](c4ccc5c(c4C)COC5=O)N[C@@H](C)C3)nn2)nc(C)c1C#N [Example 86-I, 4-methoxy-2-methyl-6-(4-(((3S,5R)-3-methyl-5-(4-methyl-1-oxo-1,3-dihydroisobenzofur-an-5-yl)piperazin-1-yl)methyl)-1H-1,2,3-triazol-1-yl)nicotinonitrile]
hROMK (human Kir1.1)
  IC50: 64 nM
hERG channels
  inhibition at 1 µM: 8.8%

## COc1cc(N2CC(CN3CCN[C@H](c4ccc5c(c4C)COC5=O)C3)CC2=O)ncc1C#N (stereo partly drawn) [Example 159-I, 4-methoxy-6-(4-(((R)-3-(4-methyl-1-oxo-1,3-dihydroisobenzofuran-5-yl)piperazin-1-yl)methyl)-2-oxopyrrolidin-1-yl)nicotinonitrile]
hROMK (human Kir1.1)
  IC50: 16 nM
hERG channels
  inhibition at 1 µM: 21%

## COc1cc(N2CC(CN3C[C@@H](c4ccc5c(c4C)COC5=O)N[C@@H](C)C3)N(C)C2=O)ncc1C#N (stereo partly drawn) [Example 274-I, 4-methoxy-6-(3-methyl-4-(((3S,5R)-3-methyl-5-(4-methyl-1-oxo-1,3-dihydroisobenzofuran-5-yl)piperazin-1-yl)methyl)-2-oxoimidazolidin-1-yl)nicotinonitrile]
hROMK (human Kir1.1)
  IC50: 58 nM
hERG channels
  inhibition at 1 µM: 43%

## Cc1cc(-n2cc(CN3CCN[C@H](c4ccc5c(c4C)COC5=O)C3)c(C)n2)ncc1C#N [Example 145-I, (R)-4-methyl-6-(3-methyl-4-((3-(4-methyl-1-oxo-1,3-dihydroisobenzofuran-5-yl)piperazin-1-yl)methyl)-1H-pyrazol-1-yl)nicotinonitrile]
hROMK (human Kir1.1)
  IC50: 15 nM
hERG channels
  inhibition at 1 µM: 25%

## COc1c(CN2CCO[C@H](c3ccc4c(c3C)COC4=O)C2)cnn1-c1cc(C)c(C#N)cn1 [Example 26-I, (R)-6-(5-methoxy-4-((2-(4-methyl-1-oxo-1,3-dihydroisobenzofuran-5-yl)morpholino)methyl)-1H-pyrazol-1-yl)-4-methylnicotinonitrile]
hROMK (human Kir1.1)
  IC50: 69 nM
hERG channels
  inhibition at 1 µM: 20%

## Cc1cc(-n2cc(CN3CC(O)CC(c4ccc5c(c4C)COC5=O)C3)cn2)ncc1C#N (single isomer, unassigned) [Example 199-IV, 6-(4-((3-hydroxy-5-(4-methyl-1-oxo-1,3-dihydroisobenzofuran-5-yl)piperidin-1-yl)methyl)-1H-pyrazol-1-yl)-4-methylnicotinonitrile]
hROMK (human Kir1.1)
  IC50: 16 nM
hERG channels
  inhibition at 1 µM: 22%

## Cc1cn(-c2cc(C)c(CN3CCN[C@H](c4ccc5c(c4C)COC5=O)C3)cn2)cn1 [Example 141-I, (R)-4-methyl-5-(4-((4-methyl-6-(4-methyl-1H-imidazol-1-yl)pyridin-3-yl)methyl)piperazin-2-yl)isobenzofuran-1(3H)-one]
hROMK (human Kir1.1)
  IC50: 69 nM
hERG channels
  inhibition at 1 µM: 7.1%
